According to PubChem BioAssay AID1918943 (Molecular Pharmacology Branch, DTP, NCI, 2023):

System: 855422-203-R-J1-PDC complex spheroid viability
Assay: Anticancer human tumor 855422-203-R-J1-PDC patient-derived bladder carcinoma cell line growth inhibition
Conditions: for IC50: curve of first compound; for viability, T/C: stronger effect = lower value
Method in brief: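 Complex spheroids of tumor cells with HUVEC and human MSCs, exposed to iadademstat combined with other agents. Each agent tested in half-log steps from near clinical Cmax (else 10 microM top), DMSO ≤0.25%.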

[1] = second compound 0.1 µM, first compound 0.00949 µM
[2] = second compound 0.1 µM, first compound 0.03 µM
[3] = second compound 0.1 µM, first compound 0.0949 µM
[4] = second compound 0.1 µM, first compound 0.3 µM
[5] = second compound 0.316 µM, first compound 0.00949 µM
[6] = second compound 0.316 µM, first compound 0.03 µM
[7] = second compound 0.316 µM, first compound 0.0949 µM
[8] = second compound 0.316 µM, first compound 0.3 µM
[9] = second compound 1 µM, first compound 0.00949 µM
[10] = second compound 1 µM, first compound 0.03 µM
[11] = second compound 1 µM, first compound 0.0949 µM
[12] = second compound 1 µM, first compound 0.3 µM
[13] = second compound 3.16 µM, first compound 0.00949 µM
[14] = second compound 3.16 µM, first compound 0.03 µM
[15] = second compound 3.16 µM, first compound 0.0949 µM
[16] = second compound 3.16 µM, first compound 0.3 µM
[17] = second compound 10 µM, first compound 0.00949 µM
[18] = second compound 10 µM, first compound 0.03 µM
[19] = second compound 10 µM, first compound 0.0949 µM
[20] = second compound 10 µM, first compound 0.3 µM
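Note: drug exposure lasted 7 days starting on day 3 after seeding.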
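Throughout, for viability, T/C: luminescence viability as percent of DMSO vehicle wells = 100%.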

SMILES: CCN(c1cc(-c2ccc(CN3CCOCC3)cc2)cc(C(=O)NCc2c(C)cc(C)[nH]c2=O)c1C)C1CCOCC1 + NC1CC1c1ccc(-c2cccc(O)c2)cc1
- IC50 (second compound 0.1 µM): > 3000 nM
- IC50 (second compound 0.316 µM): > 3000 nM
- IC50 (second compound 1 µM): > 3000 nM
- IC50 (second compound 3.16 µM): > 3000 nM
- IC50 (second compound 10 µM): > 3000 nM
- viability, T/C [1]: 90.2%
- viability, T/C [2]: 96.8%
- viability, T/C [3]: 99%
- viability, T/C [4]: 98%
- viability, T/C (second compound 0.1 µM, first compound 0.949 µM): 89%
- viability, T/C (second compound 0.1 µM, first compound 3 µM): 84.9%
- viability, T/C [5]: 89%
- viability, T/C [6]: 96.8%
- viability, T/C [7]: 96.5%
- viability, T/C [8]: 105%
- viability, T/C (second compound 0.316 µM, first compound 0.949 µM): 93%
- viability, T/C (second compound 0.316 µM, first compound 3 µM): 99.2%
- viability, T/C [9]: 91.4%
- viability, T/C [10]: 89.3%
- viability, T/C [11]: 97.7%
- viability, T/C [12]: 88.7%
- viability, T/C (second compound 1 µM, first compound 0.949 µM): 87.7%
- viability, T/C (second compound 1 µM, first compound 3 µM): 86.4%
- viability, T/C [13]: 102%
- viability, T/C [14]: 94%
- viability, T/C [15]: 91.6%
- viability, T/C [16]: 103%
- viability, T/C (second compound 3.16 µM, first compound 0.949 µM): 95.1%
- viability, T/C (second compound 3.16 µM, first compound 3 µM): 97.7%
- viability, T/C [17]: 99.9%
- viability, T/C [18]: 101%
- viability, T/C [19]: 91.4%
- viability, T/C [20]: 94.7%
- viability, T/C (second compound 10 µM, first compound 0.949 µM): 97.8%
- viability, T/C (second compound 10 µM, first compound 3 µM): 92.6%

SMILES: Cn1ncnc1C1c2n[nH]c(=O)c3cc(F)cc(c23)NC1c1ccc(F)cc1 (stereo not given) + NC1CC1c1ccc(-c2cccc(O)c2)cc1
- IC50 (second compound 0.1 µM): > 100 nM
- IC50 (second compound 0.316 µM): > 100 nM
- IC50 (second compound 1 µM): > 100 nM
- IC50 (second compound 3.16 µM): > 100 nM
- IC50 (second compound 10 µM): > 100 nM
- viability, T/C (second compound 0.1 µM, first compound 0.000316 µM): 91.5%
- viability, T/C (second compound 0.1 µM, first compound 0.001 µM): 75.1%
- viability, T/C (second compound 0.1 µM, first compound 0.00316 µM): 74.4%
- viability, T/C (second compound 0.1 µM, first compound 0.01 µM): 77.3%
- viability, T/C (second compound 0.1 µM, first compound 0.0316 µM): 80.9%
- viability, T/C (second compound 0.1 µM, first compound 0.1 µM): 86.2%
- viability, T/C (second compound 0.316 µM, first compound 0.000316 µM): 89.2%
- viability, T/C (second compound 0.316 µM, first compound 0.001 µM): 76.7%
- viability, T/C (second compound 0.316 µM, first compound 0.00316 µM): 76.1%
- viability, T/C (second compound 0.316 µM, first compound 0.01 µM): 84.2%
- viability, T/C (second compound 0.316 µM, first compound 0.0316 µM): 87.6%
- viability, T/C (second compound 0.316 µM, first compound 0.1 µM): 91.9%
- viability, T/C (second compound 1 µM, first compound 0.000316 µM): 95.8%
- viability, T/C (second compound 1 µM, first compound 0.001 µM): 97.3%
- viability, T/C (second compound 1 µM, first compound 0.00316 µM): 96.5%
- viability, T/C (second compound 1 µM, first compound 0.01 µM): 102%
- viability, T/C (second compound 1 µM, first compound 0.0316 µM): 82.7%
- viability, T/C (second compound 1 µM, first compound 0.1 µM): 90.5%
- viability, T/C (second compound 3.16 µM, first compound 0.000316 µM): 102%
- viability, T/C (second compound 3.16 µM, first compound 0.001 µM): 106%
- viability, T/C (second compound 3.16 µM, first compound 0.00316 µM): 103%
- viability, T/C (second compound 3.16 µM, first compound 0.01 µM): 109%
- viability, T/C (second compound 3.16 µM, first compound 0.0316 µM): 94.1%
- viability, T/C (second compound 3.16 µM, first compound 0.1 µM): 97.2%
- viability, T/C (second compound 10 µM, first compound 0.000316 µM): 106%
- viability, T/C (second compound 10 µM, first compound 0.001 µM): 110%
- viability, T/C (second compound 10 µM, first compound 0.00316 µM): 97.6%
- viability, T/C (second compound 10 µM, first compound 0.01 µM): 109%
- viability, T/C (second compound 10 µM, first compound 0.0316 µM): 100%
- viability, T/C (second compound 10 µM, first compound 0.1 µM): 102%

SMILES: Nc1ncn(C2CC(O)C(CO)S2)c(=O)n1 (stereo not given) + NC1CC1c1ccc(-c2cccc(O)c2)cc1
- IC50 (second compound 0.1 µM): > 300 nM
- IC50 (second compound 0.316 µM): > 300 nM
- IC50 (second compound 1 µM): > 300 nM
- IC50 (second compound 3.16 µM): > 300 nM
- IC50 (second compound 10 µM): > 300 nM
- viability, T/C (second compound 0.1 µM, first compound 0.000949 µM): 94.4%
- viability, T/C (second compound 0.1 µM, first compound 0.003 µM): 95.2%
- viability, T/C [1]: 92.8%
- viability, T/C [2]: 105%
- viability, T/C [3]: 93.2%
- viability, T/C [4]: 83.5%
- viability, T/C (second compound 0.316 µM, first compound 0.000949 µM): 87.7%
- viability, T/C (second compound 0.316 µM, first compound 0.003 µM): 91.2%
- viability, T/C [5]: 92.3%
- viability, T/C [6]: 103%
- viability, T/C [7]: 97.5%
- viability, T/C [8]: 77.9%
- viability, T/C (second compound 1 µM, first compound 0.000949 µM): 87.3%
- viability, T/C (second compound 1 µM, first compound 0.003 µM): 88.6%
- viability, T/C [9]: 93.5%
- viability, T/C [10]: 99.2%
- viability, T/C [11]: 95.4%
- viability, T/C [12]: 73.1%
- viability, T/C (second compound 3.16 µM, first compound 0.000949 µM): 81.9%
- viability, T/C (second compound 3.16 µM, first compound 0.003 µM): 84.9%
- viability, T/C [13]: 91.3%
- viability, T/C [14]: 93.4%
- viability, T/C [15]: 93.7%
- viability, T/C [16]: 73.4%
- viability, T/C (second compound 10 µM, first compound 0.000949 µM): 85.9%
- viability, T/C (second compound 10 µM, first compound 0.003 µM): 83.3%
- viability, T/C [17]: 85.6%
- viability, T/C [18]: 94.3%
- viability, T/C [19]: 84.4%
- viability, T/C [20]: 68.8%
